From patent US20080124410A1, “Use Of Lavender Oil For The Prophylaxis And Treatment Of Neurasthenia, Somatization Disorders And Other Stress-Associated Diseases” (priority 2004, published 2008)

Test system: rats
Test: Forced Swimm Stress model, immobilization period
Format: in vivo
Conditions: 30 mg/kg perorally, once a day for nine days
Experimental: The stress-reducing effects of lavender oil was tested in rats by the so-called “Forced Swimm Stress” model (R. D. Porsolt et al. (1978), Eur. J. Pharmacol. 47, 379-391). The stress reaction experimentally elicited by this test in rats is a recognized method for testing stress-induced behaviour. The principle of the test system used involves that rats being put into a water-filled glass cylinder which they can not leave independently, fall into a still state after a short period of swimming (immobilization period). This immobility is interpreted as a reaction to recognizing the hopelessness of the situation (cf. Example 2).
In order to test the stress-reducing effects of lavender oil, rats were treated over a period of nine days in total with differently high dosages of lavender oil according to European Pharmacopoeia, edition 4 (WS® 1265) once a day. For comparison purposes some animals were treated either with the tricyclic antidepressive agent imipramine used in stress therapy or with a control solution without an active ingredient. On the seventh day of the treatment, the animals were placed into the water-filled glass cylinder for 15 minutes for familiarization purposes. At the final day of the treatment, the animals were placed into the graduated cylinder again for a period of 5 minutes and the period of immobility was measured as a measure of the stress reaction.

CN(C)CCCN1c2ccccc2CCc2ccccc21 [imipramine]
immobilization period: 48 ± 6 s | inhibition (versus control): 67%
